Reference: ChEMBL document CHEMBL5356935, “Discovery of rigid biphenyl Plasmodium falciparum DHFR inhibitors using a fragment linking strategy” (RSC Med Chem, 2023)
The source made the active and inactive calls. The calls are words filed in the database; no cut-off is given here.

Columns and labels:
[1] = Distribution coefficient, log D of compound in n-octanol and saturated PBS at pH 7.4 at 100 uM incubated for 2 hrs under shaking condition by HPLC analysis; format: physicochemical
Plasmodium falciparum [2] = assay: Antiplasmodial activity against PYR-resistant Plasmodium falciparum V1/S encoding QM DHFR infected in human erythrocytes assessed as inhibition of parasite growth by [3H]-hypoxanthine incorporation assay; format: functional, organism-based; conditions: Erythrocyte
[3] = target: Bifunctional dihydrofolate reductase-thymidylate synthase (Plasmodium falciparum K1, UniProt P13922); assay: Inhibition of wild type Plasmodium falciparum DHFR using DHF as substrate assessed as inhibition constant in presence of NADPH by UV-Vis spectrometry analysis
Dihydrofolate reductase = target: T1, Dihydrofolate reductase (Homo sapiens, UniProt P00374); assay: Inhibition of human DHFR using DHF as substrate assessed as inhibition constant in presence of NADPH by UV-Vis spectrometry analysis
T1 sequence (P00374 whole entry): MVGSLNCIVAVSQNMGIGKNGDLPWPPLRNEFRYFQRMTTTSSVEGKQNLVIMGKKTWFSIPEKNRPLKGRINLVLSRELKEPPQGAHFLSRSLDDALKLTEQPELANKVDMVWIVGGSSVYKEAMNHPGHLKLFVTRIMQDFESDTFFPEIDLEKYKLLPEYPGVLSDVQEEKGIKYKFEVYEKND

Plasmodium falciparum [4] = assay: Antiplasmodial activity against PYR-sensitive Plasmodium falciparum TM4/8.2 encoding WT DHFR infected in human erythrocytes assessed as inhibition of parasite growth by [3H]-hypoxanthine incorporation assay; format: functional, organism-based; conditions: TM4/8.2, Erythrocyte
[5] = Inhibition of Plasmodium falciparum DHFR N51I/C59R/S108N/I164L quadruple mutant using DHF as substrate assessed as inhibition constant in presence of NADPH by UV-Vis spectrometry analysis
[6] = Cytotoxicity against African green monkey Vero cells assessed as cell growth inhibition incubated for 72 hrs by sulforhodamine B assay; format: toxicity, cell-based, Chlorocebus sabaeus
[7] = Kinetic solubility of the compound at pH 2.0 at 200 uM incubated for 2 hrs under shaking condition by HPLC analysis; format: physicochemical; conditions: buffer, read-out: Kinetic_solubility
[8] = Kinetic solubility of the compound at pH 7.4 at 200 uM incubated for 2 hrs under shaking condition by HPLC analysis; format: physicochemical; conditions: buffer, read-out: Kinetic_solubility
[9] = Kinetic solubility of the compound at pH 6.5 at 200 uM incubated for 2 hrs under shaking condition by HPLC analysis; format: physicochemical; conditions: buffer, read-out: Kinetic_solubility
[10] = Kinetic solubility of the compound at pH 4.5 at 200 uM incubated for 2 hrs under shaking condition by HPLC analysis; format: physicochemical; conditions: buffer, read-out: Kinetic_solubility
[11] = Metabolic stability in human liver microsomes assessed as intrinsic clearance measured upto 60 mins in presence of NADPH by LC-MS/MS analysis; format: ADME, Microsome; conditions: read-out: CLH
[12] = Metabolic stability in rat liver microsomes assessed as intrinsic clearance measured upto 60 mins in presence of NADPH by LC-MS/MS analysis; format: ADME, Microsome; conditions: read-out: CLH
Plasmodium falciparum [13] = assay: Inhibition of Plasmodium falciparum DHFR N51I/C59R/S108N/I164L quadruple mutant using DHF as substrate at 500 uM in presence of NADPH by UV-Vis spectrometry analysis relative to control
Plasmodium falciparum [14] = assay: Binding affinity to Plasmodium falciparum apo-DHFR N51I/C59R/S108N/I164L quadruple mutant assessed as change in melting temperature by […] analysis
[15] = target: Bifunctional dihydrofolate reductase-thymidylate synthase (Plasmodium falciparum K1) (UniProt P13922); assay: Binding affinity to Plasmodium falciparum DHFR assessed as binding constant (kon) by surface plasmon resonance analysis
[16] = target: Bifunctional dihydrofolate reductase-thymidylate synthase (Plasmodium falciparum K1) (UniProt P13922); assay: Binding affinity to Plasmodium falciparum DHFR assessed as binding constant (koff) by surface plasmon resonance analysis
[17] = target: Bifunctional dihydrofolate reductase-thymidylate synthase (Plasmodium falciparum K1) (UniProt P13922); assay: Inhibition of wild type Plasmodium falciparum DHFR using DHF as substrate at 500 uM in presence of NADPH by UV-Vis spectrometry analysis
[18] = target: T2, Dihydrofolate reductase (Homo sapiens) (UniProt P00374); assay: Inhibition of human DHFR at 500 uM by UV-Vis spectrometry analysis
T2 sequence (whole entry): T1 sequence (P00374 whole entry)

[19] = target: Bifunctional dihydrofolate reductase-thymidylate synthase (Plasmodium falciparum K1) (UniProt P13922); assay: Inhibition of wild type Plasmodium falciparum DHFR using DHF as substrate at 500 uM in presence of NADPH by UV-Vis spectrometry analysis relative to control
Plasmodium falciparum [20] = assay: Inhibition of Plasmodium falciparum DHFR N51I/C59R/S108N/I164L quadruple mutant assessed as fold change in inhibition in presence of 2,4-diamino-6-ethylpyrimidin-5-ol
[21] = target: Bifunctional dihydrofolate reductase-thymidylate synthase (Plasmodium falciparum K1) (UniProt P13922); assay: Binding affinity to Plasmodium falciparum DHFR assessed as faster binding and release kinetics by surface plasmon resonance analysis
Plasmodium falciparum [22] = assay: Inhibition of Plasmodium falciparum DHFR N51I/C59R/S108N/I164L quadruple mutant using DHF as substrate at 500 uM in presence of NADPH by UV-Vis spectrometry analysis
Plasmodium falciparum [23] = assay: Binding affinity to Plasmodium falciparum DHFR N51I/C59R/S108N/I164L quadruple mutant assessed as change in melting temperature in presence of NADPH by […] analysis

Bifunctional dihydrofolate reductase-thymidylate synthase (Plasmodium falciparum K1), sequence (P13922 whole entry, looked up): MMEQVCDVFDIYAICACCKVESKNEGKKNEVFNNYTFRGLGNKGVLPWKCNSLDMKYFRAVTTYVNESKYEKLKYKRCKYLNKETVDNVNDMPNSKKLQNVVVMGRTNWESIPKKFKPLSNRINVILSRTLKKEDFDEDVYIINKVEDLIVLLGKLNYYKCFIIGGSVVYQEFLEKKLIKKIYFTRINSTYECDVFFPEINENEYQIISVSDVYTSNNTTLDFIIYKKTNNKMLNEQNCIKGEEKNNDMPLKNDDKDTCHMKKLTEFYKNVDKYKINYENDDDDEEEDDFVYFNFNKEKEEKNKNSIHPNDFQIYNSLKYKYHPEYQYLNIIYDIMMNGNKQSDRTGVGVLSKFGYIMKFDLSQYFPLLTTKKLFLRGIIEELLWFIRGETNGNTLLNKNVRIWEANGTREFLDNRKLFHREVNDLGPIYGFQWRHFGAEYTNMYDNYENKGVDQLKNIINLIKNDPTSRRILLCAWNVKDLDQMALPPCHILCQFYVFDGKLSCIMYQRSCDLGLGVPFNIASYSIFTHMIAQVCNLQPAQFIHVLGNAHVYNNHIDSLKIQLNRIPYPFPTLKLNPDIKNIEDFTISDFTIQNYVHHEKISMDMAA
Bifunctional dihydrofolate reductase-thymidylate synthase, sequence (P13922 whole entry): as the sequence (P13922 whole entry, looked up) above

SMILES | logD at 2 h, 100 µM [1] | IC50 (Plasmodium falciparum [2]) | Ki [3] | Ki (Dihydrofolate reductase) | IC50 (Plasmodium falciparum [4]) | Ki [5] | IC50 at 72 h [6] | inhibition (Plasmodium falciparum [13]) | K [15] | K [16] | inhibition [17] | inhibition [18] | other results
CCc1nc(N)nc(N)c1Cc1cccc(-c2cccc(C(=O)OC)c2)c1 | 3.2 | 40 µM | 0.00021 µM | 0.0194 µM | 4.95 µM | 0.00058 µM | 21.7 µM | – | – | – | – | – | –
CCc1nc(N)nc(N)c1Cc1ccc(-c2cccc(C(=O)OC)c2)cc1.Cl | 3.37 | 34.5 µM | 0.00029 µM | 0.14 µM | 0.72 µM | 0.00211 µM | 19.3 µM | – | – | – | – | – | solubility kinetic at 2 h, 200 µM [7]: 186 µM; solubility kinetic at 2 h, 200 µM [8]: 8.1 µM; solubility kinetic at 2 h, 200 µM [9]: 8.8 µM; solubility kinetic at 2 h, 200 µM [10]: 183 µM; microsomal CLint [11]: 625 µL/min/mg; microsomal CLint [12]: 100 µL/min/mg
O=C(O)c1ccc(-c2ccccc2F)o1 | – | – | – | – | – | – | – | 2.6% | 7.61 M⁻¹ s⁻¹ | 0.001 s⁻¹ | inactive | inactive | ΔTm (Plasmodium falciparum [14]): -1.8 °C
O=C(O)c1cccc(-c2cccnc2)c1 | – | – | – | – | – | – | – | 3.89% | 16.3 M⁻¹ s⁻¹ | 0.002 s⁻¹ | inactive | inactive | –
O=C(O)c1ccccc1-c1ccco1 | – | – | – | – | – | – | – | 7.7% | 40 M⁻¹ s⁻¹ | 0.012 s⁻¹ | – | inactive | inhibition [19]: 6.5%
CCc1nc(N)nc(N)c1Cc1cccc(-c2ccc(C(=O)OC)cc2)c1 | 3.24 | > 50 µM | 0.00025 µM | 0.0166 µM | 34.1 µM | 0.00104 µM | > 50 µM | – | – | – | – | – | –
O=C(O)c1ccc(-c2cnco2)cc1 | – | – | – | – | – | – | – | 11.3% | 5.26 M⁻¹ s⁻¹ | 0.013 s⁻¹ | inactive | inactive | fold change (FC) (Plasmodium falciparum [20]): 2.6
O=C(O)c1cccnc1-c1ccccc1 | – | – | – | – | – | – | – | – | – | – | inactive | inactive | Activity [21]: Active; inhibition (Plasmodium falciparum [22]): inactive
CCc1nc(N)nc(N)c1Cc1ccc(-c2ccc(C(=O)OC)cc2)cc1.Cl | 3.49 | > 25 µM | 0.00106 µM | 0.423 µM | 8.15 µM | 0.0417 µM | > 25 µM | – | – | – | – | – | solubility kinetic at 2 h, 200 µM [7]: 154 µM; solubility kinetic at 2 h, 200 µM [8]: < 4 µM; solubility kinetic at 2 h, 200 µM [9]: < 4 µM; solubility kinetic at 2 h, 200 µM [10]: 132 µM; microsomal CLint [11]: 459 µL/min/mg; microsomal CLint [12]: 764 µL/min/mg
CCc1nc(N)nc(N)c1Cc1cccc(-c2cccc(C(=O)O)c2)c1 | – | 35 µM | 0.00023 µM | 0.108 µM | 4.14 µM | 0.00081 µM | > 50 µM | – | – | – | – | – | –
Cc1ccc(-c2ccc(C(=O)O)cc2)o1 | – | – | – | – | – | – | – | 23.1% | 25.4 M⁻¹ s⁻¹ | 0.019 s⁻¹ | – | inactive | inhibition [19]: 27.4%; ΔTm (Plasmodium falciparum [23]): -2.3 °C
CCc1nc(N)nc(N)c1Cc1ccc(-c2ccc(C(=O)O)cc2)cc1.Cl | 0.332 | > 50 µM | 0.00159 µM | 0.214 µM | 11.2 µM | 0.0611 µM | > 50 µM | – | – | – | – | – | solubility kinetic at 2 h, 200 µM [7]: 176 µM; solubility kinetic at 2 h, 200 µM [8]: 11.7 µM; solubility kinetic at 2 h, 200 µM [9]: 11.4 µM; solubility kinetic at 2 h, 200 µM [10]: 8.8 µM; microsomal CLint [11]: < 3 µL/min/mg; microsomal CLint [12]: < 3 µL/min/mg
O=C(O)c1ccnc(-c2ccccc2)c1 | – | – | – | – | – | – | – | – | 3.55 M⁻¹ s⁻¹ | 0.01 s⁻¹ | inactive | inactive | inhibition (Plasmodium falciparum [22]): inactive
CCc1nc(N)nc(N)c1Cc1ccc(-c2cccc(C(=O)O)c2)cc1.Cl | – | 29.7 µM | 0.00029 µM | 0.147 µM | 0.77 µM | 0.00196 µM | > 50 µM | – | – | – | – | – | solubility kinetic at 2 h, 200 µM [7]: 192 µM; solubility kinetic at 2 h, 200 µM [8]: 29.9 µM; solubility kinetic at 2 h, 200 µM [9]: 15.7 µM; solubility kinetic at 2 h, 200 µM [10]: 11.4 µM; microsomal CLint [11]: 4.92 µL/min/mg; microsomal CLint [12]: < 3 µL/min/mg
COc1cccc(-c2ccc(C(=O)O)cc2)c1 | – | – | – | – | – | – | – | 45.8% | – | – | – | inactive | inhibition [19]: 37.8%; Activity [21]: Active; fold change (FC) (Plasmodium falciparum [20]): 2
